This is an account of results in US20230203004A1, “RSV INHIBITING 3-SUBSTITUTED QUINOLINE AND CINNOLINE DERIVATIVES” (Janssen Sciences Ireland Unlimited Company, priority 2020, published 2023).

The EC50 is the concentration giving half of the maximal effect. The CC50 is the concentration giving 50% cytotoxicity. Higher therefore signals better tolerance by the cells.

Like-named read-outs stand apart in the source and are kept apart here.

For one data set, the system named is rgRSV224 virus. Briefly: Antiviral activity: rgRSV224 (GFP) replication in HeLa cells. Format: cell-based, respiratory syncytial virus (RSV). On the procedure:
(§1) Black 384-well clear-bottom microtiter plates (Corning, Amsterdam, The Netherlands) were filled via acoustic drop ejection using the echo liquid handler (Labcyte, Sunnyvale, California). 200 nL of compound stock solutions (100% DMSO) were transferred to the assay plates. 9 serial 4-fold dilutions of compound were made, creating per quadrant the same compound concentration. The assay was initiated by adding 10 µL of culture medium to each well (RPMI medium without phenol red, 10% FBS-heat inactivated, 0.04% gentamycin (50 mg/mL). All addition steps are done by using a multidrop dispenser (Thermo Scientific, Erembodegem, Belgium). Next, rgRSV224 virus (MOI = 1) diluted in culture medium was added to the plates. rgRSV224 virus is an engineered virus that includes an additional GFP gene (Hallak LK, Spillmann D, Collins PL, Peeples ME. Glycosaminoglycan sulfation requirements for respiratory syncytial virus infection; Journal of virology (2000), 74(22), 10508-13) and was in-licensed from the NIH (Bethesda, MD, USA). Finally, 20 µL of a HeLa cell suspension (3,000 cells/well) were plated. Medium, virus- and mock-infected controls were included in each test. The wells contain […] DMSO per volume. Cells were incubated at 37° C. in a 5% CO2 atmosphere. Three days post-virus exposure, viral replication was quantified by measuring GFP expression in the cells by an in house developed MSM laser microscope (Tibotec, Beerse, Belgium). The EC50 was defined as the 50% inhibitory concentration for GFP expression. In parallel, compounds were incubated for three days in a set of white 384-well microtiter plates (Corning) and the cytotoxicity of compounds in HeLa cells was determined by measuring the ATP content of the cells using the ATPlite kit (Perkin Elmer, Zaventem, Belgium) according to the manufacturer’s instructions. The CC50 was defined as the 50% concentration for cytotoxicity.

The nature of data set [1]: Cytotoxicity in HeLa cells (ATP content, ATPlite kit). Format: cell-based. To be noted: human. On the procedure:
as §1

[2] abbreviates: human respiratory syncytial virus, HeLa, 72 h, read-out: RSV HELA EC50, HeLa cells, rgRSV224 MOI = 1, GFP expression three days post-virus exposure, averaged data of several repeat experiments.

Regarding `Cc1cnc2c(OC3CC3)cc(C(=O)NC[C@](O)(c3cc(C(C)(C)O)c(F)c(-c4ccc(F)cc4)n3)C3CC3)cc2c1` [compound 223, (-)-N-{2-Cyclopropyl-2-[5-Fluoro-6-(4-Fluorophenyl)-4-(2-Hydroxypropan-2-yl)Pyridin-2-yl]-2-Hydroxyethyl}-8-(Cyclopropyloxy)-3-Methylquinoline-6-Carboxamide], the EC50 with rgRSV224 virus (setting [2]) came out at 0.00063 µM. In data set [1] (TOX HELA CC50), this compound yielded a CC50 at 3 days of 21 µM.

Regarding `Cc1cnc2c(OC3CC3)cc(C(=O)NC[C@](O)(c3cc(C(C)(C)O)c(F)c(-c4ccc(C(F)(F)F)cc4)n3)C3CC3)cc2c1` [compound 224], the EC50 in the data set with rgRSV224 virus (setting [2]) came to 0.0017 µM. The compound further gave a CC50 at 3 days in data set [1] (TOX HELA CC50) of 15 µM.

Regarding `Cc1cnc2c(OC3CC3)cc(C(=O)NC[C@](O)(c3cc(C(C)(C)O)c(F)c(-c4ccc(F)c(F)c4)n3)C3CC3)cc2c1` [compound 225, (-)-N-{2-Cyclopropyl-2-[6-(3,4-Difluorophenyl)-5-Fluoro-4-(2-Hydroxypropan-2-yl)Pyridin-2-yl]-2-Hydroxyethyl}-8-(Cyclopropyloxy)-3-Methylquinoline-6-Carboxamide], the EC50 with rgRSV224 virus (setting [2]) stood at 0.00059 µM. In addition, in data set [1] (TOX HELA CC50), the CC50 at 3 days came out at 15 µM.

As for `COc1cc(C(=O)NC[C@](O)(c2cc(C(C)(C)O)c(Cl)c(-c3ccc(F)cc3)n2)C2CC2)cc2cc(C(F)F)cnc12` [compound 226, (-)-N-{2-[5-Chloro-6-(4-Fluorophenyl)-4-(2-Hydroxypropan-2-yl)Pyridin-2-yl]-2-Cyclopropyl-2-Hydroxyethyl}-3-(Difluoromethyl)-8-Methoxyquinoline-6-Carboxamide], in the data set with rgRSV224 virus (setting [2]), the EC50 was found to be 0.0024 µM. Besides, the CC50 at 3 days in data set [1] (TOX HELA CC50) was 14 µM.

Take `COc1cc(C(=O)NC[C@](O)(c2cc(C(C)(C)O)c(F)c(-c3ccc(F)cc3)n2)C2CC2)cc2cc(C(F)F)cnc12` [compound 227, N-{(-)Cyclopropyl[5-Fluoro-6-(4-Fluorophenyl)-4-(2-Hydroxypropanyl)Pyridinyl]Hydroxyethyl}-3-(Difluoromethyl)-8-Methoxyquinoline-6-Carboxamide]: in the data set with rgRSV224 virus (setting [2]), the concentration giving a half-maximal response (EC50) came to 0.0011 µM. Besides, in data set [1] (TOX HELA CC50), the CC50 at 3 days was 15 µM.

Turning to `COc1cc(C(=O)NC[C@](O)(c2nc(-c3ccc(F)cc3)c(F)c(C(C)(C)O)c2F)C(F)(F)F)cc2cc(C3CC3)cnc12` [compound 228, (-)Cyclopropyl-N-{2-[3,5-Difluoro-6-(4-Fluorophenyl)-4-(2-Hydroxypropan-2-yl)Pyridin-2-yl]-3,3,3-Trifluoro-2-Hydroxypropyl}-8-Methoxyquinoline-6-Carboxamide], the EC50 in the data set with rgRSV224 virus (setting [2]) was determined as 0.013 µM. The compound further displayed a CC50 at 3 days in data set [1] (TOX HELA CC50) of 10 µM.

As to `COc1cc(C(=O)NC[C@](C)(O)c2cc(C(C)(C)O)c(Cl)c(-c3ccc(F)cc3)n2)cc2cc(C)nnc12` [compound 229, (-)-N-{2-[5-Chloro-6-(4-Fluorophenyl)-4-(2-Hydroxypropan-2-yl)Pyridin-2-yl]-2-Hydroxypropyl}-8-Methoxy-3-Methylcinnoline-6-Carboxamide], in the data set on rgRSV224 virus (setting [2]), the EC50 was determined as 0.00081 µM. Besides, the 50% cytotoxic concentration (CC50) at 3 days in data set [1] (TOX HELA CC50) was 44 µM.

For `COc1cc(C(=O)NC[C@@](C)(O)c2cc(C(C)(C)O)c(Cl)c(-c3ccc(F)cc3)n2)cc2cc(C)nnc12` [compound 230], the EC50 in the data set with rgRSV224 virus (setting [2]) worked out at 0.12 µM. The CC50 at 3 days in data set [1] (TOX HELA CC50) worked out at 57 µM.

Consider `COc1cc(C(=O)NC[C@](O)(c2cc(C(C)(C)O)c(Cl)c(-c3ccc(F)cc3)n2)C(F)(F)F)cc2cc(C)nnc12` [compound 232, (-)-N-{2-[5-Chloro-6-(4-Fluorophenyl)-4-(2-Hydroxypropan-2-yl)Pyridin-2-yl]-3,3,3-Trifluoro-2-Hydroxypropyl}-8-Methoxy-3-Methylcinnoline-6-Carboxamide], for which the EC50 in the data set with rgRSV224 virus (setting [2]) came to 0.0016 µM. Moreover, the CC50 at 3 days in data set [1] (TOX HELA CC50) was 24 µM.

As to `COc1cc(C(=O)NC[C@@](O)(c2cc(C(C)(C)NS(C)(=O)=O)c(Cl)c(-c3ccc(F)cc3)n2)C(F)(F)F)cc2cc(C)nnc12` [compound 233, (+)-N-{2-[5-Chloro-6-(4-Fluorophenyl)-4-{2-[(Methanesulfonyl)Amino]Propan-2-yl}Pyridin-2-yl]-3,3,3-Trifluoro-2-Hydroxypropyl}-8-Methoxy-3-Methylcinnoline-6-Carboxamide], the EC50 in the data set on rgRSV224 virus (setting [2]) came to 0.4 µM. Besides, in data set [1] (TOX HELA CC50), the CC50 at 3 days came out at 43 µM.

As to `COc1cc(C(=O)NC[C@](O)(c2cc(C(C)(C)O)c(F)c(-c3ccc(F)cc3)n2)C(F)(F)F)cc2cc(C)nnc12` [compound 234], the EC50 is 0.0006 µM in the data set with rgRSV224 virus (human respiratory syncytial virus, HeLa, comparison table 5.3, antiviral RSV assay of Example 5.1) and 0.00082 µM in the data set with rgRSV224 virus (read-out: RSV HELA EC50, HeLa cells, rgRSV224 MOI = 1, GFP expression three days post-virus exposure, averaged data of several repeat experiments). Moreover, the CC50 at 3 days in data set [1] (CC50) and in data set [1] (TOX HELA CC50) was 23 µM each time.

With `COc1cc(C(=O)NC[C@](O)(c2cc(C(C)(C)NS(C)(=O)=O)c(F)c(-c3ccc(F)cc3)n2)C(F)(F)F)cc2cc(C)nnc12` [compound 237, (-)Methoxy-3-Methyl-N-{3,3,3-Trifluoro-2-[5-Fluoro-6-(4-Fluorophenyl)-4-{2-[(MethaneSulfonyl)Amino]propan-2-yl}Pyridin-2-yl]-2-Hydroxypropyl}Cinnoline-6-Carboxamide], in the data set on rgRSV224 virus (setting [2]), the EC50 worked out at 0.0051 µM. The CC50 at 3 days in data set [1] (TOX HELA CC50) came out at 51 µM.

For `COc1cc(C(=O)NC[C@](O)(c2cc(C(C)(C)O)c(F)c(-c3ccc(F)c(C)c3)n2)C(F)(F)F)cc2cc(C)nnc12` [compound 238, (+)Methoxy-3-Methyl-N-{3,3,3-Trifluoro-2-[5-Fluoro-6-(4-Fluoro-3-Methylphenyl)-4-(2-Hydroxypropan-2-yl)Pyridin-2-yl]-2-Hydroxypropyl}Cinnoline-6-Carboxamide], in the data set on rgRSV224 virus (setting [2]), the EC50 was 0.0029 µM. For the same compound, the CC50 at 3 days in data set [1] (TOX HELA CC50) amounted to 23 µM.

For the compound `COc1cc(C(=O)NC[C@](O)(c2cc(C(C)(C)O)c(F)c(-c3ccc(F)c(F)c3)n2)C(F)(F)F)cc2cc(C)nnc12` [compound 239, (-)-N-{2-[6-(3,4-Difluorophenyl)-5-Fluoro-4-(2-Hydroxypropan-2-yl)Pyridin-2-yl]-3,3,3-Trifluoro-2-Hydroxypropyl}-8-Methoxy-3-Methylcinnoline-6-Carboxamide], in the data set on rgRSV224 virus (setting [2]), the EC50 was 0.0005 µM. The compound also gave a CC50 at 3 days in data set [1] (TOX HELA CC50) of 19 µM.

On to `COc1cc(C(=O)NC[C@](O)(c2nc(-c3ccc(F)cc3)c(F)c(C(C)(C)O)c2F)C(F)(F)F)cc2cc(C)nnc12` [compound 240, (-)-N-{2-[3,5-Difluoro-6-(4-Fluorophenyl)-4-(2-Hydroxypropan-2-yl)Pyridin-2-yl]-3,3,3-Trifluoro-2-Hydroxypropyl}-8-Methoxy-3-Methylcinnoline-6-Carboxamide], for which the EC50 in the data set with rgRSV224 virus (setting [2]) turned out to be 0.0012 µM. Moreover, the CC50 at 3 days in data set [1] (TOX HELA CC50) amounted to 46 µM.

As for `COc1cc(C(=O)NC[C@](O)(c2nc(-c3ccc(F)cc3)c(F)c(C(C)(C)NC(C)=O)c2F)C(F)(F)F)cc2cc(C)nnc12` [compound 241, (-)-N-{2-[4-(2-Acetamidopropan-2-yl)-3,5-Difluoro-6-(4-Fluorophenyl)Pyridin-2-yl]-3,3,3-Trifluoro-2-Hydroxypropyl}-8-Methoxy-3-Methylcinnoline-6-Carboxamide], the EC50 in the data set with rgRSV224 virus (setting [2]) is 0.0015 µM. In data set [1] (TOX HELA CC50), the midpoint of cytotoxicity, the CC50 at 3 days, lay at 50 µM.

As for `COc1cc(C(=O)NC[C@@](O)(c2nc(-c3ccc(F)cc3)c(F)c(C(C)(C)NC(C)=O)c2F)C(F)(F)F)cc2cc(C)nnc12` [compound 242, (+)-N-{2-[4-(2-Acetamidopropan-2-yl)-3,5-Difluoro-6-(4-Fluorophenyl)Pyridin-2-yl]-3,3,3-Trifluoro-2-Hydroxypropyl}-8-Methoxy-3-Methylcinnoline-6-Carboxamide], the EC50 in the data set on rgRSV224 virus (setting [2]) stood at 0.17 µM. In data set [1] (TOX HELA CC50), this compound came in with a CC50 at 3 days of 48 µM.
